Among the data in patent US11180462B2, “Microbiocidal oxadiazole derivatives” (SYNGENTA PARTICIPATIONS AG, priority 2015, dated 2021) are pest or weed control, inhibition of growth and melting point values, retold here.

Data set [1] deals with Puccinia recondita f. Sp. Tritici. The experiment in a line: Fungicidal activity against Puccinia recondita f. sp. tritici / wheat / leaf disc preventative (brown rust). Particulars: foliar, 200 ppm in the applied formulation, wheat leaf segments, preventative, compared to untreated control leaf disks, read-out: disease control. Format: in vivo. A digest of the protocol: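 Preventative leaf-segment test, wheat cv. Kanzler on water agar. Spray compound at 200 ppm, inoculate with spores 1 day later; 19° C., 75% rh, 12/12 h light. Read-out: % disease control vs untreated, 7 to 9 days after application.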

Data set [2] has the same test system. In words: Fungicidal activity against Puccinia recondita f. sp. tritici / wheat / leaf disc curative (brown rust). The format is in vivo. Particulars: foliar, 24 h, 200 ppm in the applied formulation, wheat leaf segments, curative (applied 1 day after inoculation), compared to untreated control leaf disks, read-out: disease control. A digest of the protocol:
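Scoring is percent disease control relative to untreated segments, made 6 to 8 days after treatment. Wheat (cv. Kanzler) leaf segments received the formulated, water-diluted compound one day post-inoculation with spores, having been kept dark at 19° C and 75% RH, then incubated under 12 h light/12 h dark at the same temperature and humidity.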

Another data set deals with Phakopsora Pachyrhizi. In words: Fungicidal activity against Phakopsora pachyrhizi / soybean / leaf disc preventative (Asian soybean rust). Format: in vivo. Particulars: foliar, 200 ppm in the applied formulation, soybean leaf disks, compared to untreated control leaf disks, read-out: disease control. In a few lines: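 Preventative soybean leaf-disc test: discs on water agar sprayed with diluted formulated compound, inoculated one day later with spores on the lower surface. Held 24–36 h dark at 20°C, 75% rh, then 12 h light/day; percent disease control versus untreated discs scored 12–14 days after application.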

In data set [3] the test system is Glomerella lagenarium (Colletotrichum lagenarium). In words: Fungicidal activity against Glomerella lagenarium (Colletotrichum lagenarium) liquid culture / cucumber / preventative (anthracnose). Format: cell-based. Particulars: Colletotrichum orbiculare; 20 ppm in the applied formulation; liquid culture (PDB), growth inhibition measured photometrically after 3 to 4 days; compared to untreated control; read-out: disease control. A digest of the protocol:
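Photometric read-out of fungal growth after 2–7 days, expressed as percent antifungal activity versus untreated check. Cryo-stored conidia in PDB; compound at 20 ppm; dark, 24 °C, 96% RH.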

`COCC(=O)N(O)Cc1ccc(-c2noc(C(F)(F)F)n2)cc1` [Compound 1.606, N-hydroxy-2-methoxy-N-[[4-[5-(trifluoromethyl)-1,2,4-oxadiazol-3-yl]phenyl]methyl]-acetamide]: the melting point (usually the temperature of the solid-liquid transition) is 144.4 to 147.8 °C. Besides, the pest or weed control at 200 ppm in data set [1] was at least 80%. Also, in data set [2], the pest or weed control at 200 ppm was at least 80%. Moreover, the pest or weed control at 200 ppm in the data set on Phakopsora Pachyrhizi is at least 80%. Besides, the inhibition of growth at 20 ppm in data set [3] was at least 80%.
The compound `CON(Cc1ccc(-c2noc(C(F)(F)F)n2)cc1)C(=O)NCC(=O)N(C)C` [Compound 3.51, 2-[[methoxy-[[4-[5-(trifluoromethyl)-1,2,4-oxadiazol-3-yl]phenyl]methyl]-carbamoyl]amino]-N,N-dimethyl-acetamide] came in with a melting point of 98 to 101 °C. The pest or weed control at 200 ppm in data set [1] is at least 80%. Moreover, in data set [2], the pest or weed control at 200 ppm is at least 80%. Moreover, the pest or weed control at 200 ppm in the data set with Phakopsora Pachyrhizi was at least 80%. Moreover, the inhibition of growth at 20 ppm in data set [3] is at least 80%.
In turn, `CN(Cc1ccc(-c2noc(C(F)(F)F)n2)cc1)C(=O)NC1CC1` [Compound 3.56, 3-cyclopropyl-1-methyl-1-[[4-[5-(trifluoromethyl)-1,2,4-oxadiazol-3-yl]phenyl]methyl]urea] came in with a melting point of 113 to 121 °C. Moreover, the pest or weed control at 200 ppm in data set [1] was at least 80%. The pest or weed control at 200 ppm in data set [2] was at least 80%. Besides, the pest or weed control at 200 ppm with Phakopsora Pachyrhizi was at least 80%. The inhibition of growth at 20 ppm in data set [3] is at least 80%.
For `CON(Cc1ccc(-c2noc(C(F)(F)F)n2)cc1)C(=O)NCC#N` [Compound 3.39, 3-(cyanomethyl)-1-methoxy-1-[[4-[5-(trifluoromethyl)-1,2,4-oxadiazol-3-yl]phenyl]methyl]urea], the melting point fell in the range of 155 to 158 °C. Besides, the pest or weed control at 200 ppm in data set [1] is at least 80%. Also, the pest or weed control at 200 ppm in data set [2] is at least 80%. In addition, the pest or weed control at 200 ppm in the data set on Phakopsora Pachyrhizi was at least 80%. Besides, the inhibition of growth at 20 ppm in data set [3] was at least 80%.
With `O=C(C1CC1)N(Cc1ccc(-c2noc(C(F)(F)F)n2)cc1)C1COC1` [Compound 1.605, N-(oxetan-3-yl)-N-[[4-[5-(trifluoromethyl)-1,2,4-oxadiazol-3-yl]phenyl]methyl]-cyclopropane-carboxamide], the melting point was in the range of 89.5 to 94 °C. For the same compound, the pest or weed control at 200 ppm in data set [1] is at least 80%. For the same compound, the pest or weed control at 200 ppm in data set [2] is at least 80%. In the data set on Phakopsora Pachyrhizi, the pest or weed control at 200 ppm is at least 80%. In addition, the inhibition of growth at 20 ppm in data set [3] was at least 80%.
For `CON(Cc1ccc(-c2noc(C(F)(F)F)n2)cc1)C(N)=O` [Compound 3.32, 1-methoxy-1-[[4-[5-(trifluoromethyl)-1,2,4-oxadiazol-3-yl]phenyl]methyl]urea], the melting point fell in the range of 112.2 to 114.7 °C. Further, the pest or weed control at 200 ppm in data set [1] was at least 80%. In addition, the pest or weed control at 200 ppm in data set [2] is at least 80%. For the same compound, the pest or weed control at 200 ppm in the data set with Phakopsora Pachyrhizi was at least 80%. Moreover, the inhibition of growth at 20 ppm in data set [3] is at least 80%.
`CON(Cc1ccc(-c2noc(C(F)(F)F)n2)cc1)C(=O)N[C@@H](C)C1CC1` [Compound 3.41, 3-[(1S)-1-cyclopropylethyl]-1-methoxy-1-[[4-[5-(trifluoromethyl)-1,2,4-oxadiazol-3-yl]phenyl]methyl]urea] registered a melting point of 99 to 102 °C. Also, the pest or weed control at 200 ppm in data set [1] is at least 80%. Moreover, in data set [2], the pest or weed control at 200 ppm was at least 80%. Further, the pest or weed control at 200 ppm in the data set with Phakopsora Pachyrhizi was at least 80%. In addition, in data set [3], the inhibition of growth at 20 ppm was at least 80%.
In turn, `CON(C)C(=O)N(Cc1ccc(-c2noc(C(F)(F)F)n2)cc1)OC` [Compound 3.3, 1,3-dimethoxy-1-methyl-3-[[4-[5-(trifluoromethyl)-1,2,4-oxadiazol-3-yl]phenyl]methyl]urea] registered a melting point of 74 to 77 °C. Besides, in data set [1], the pest or weed control at 200 ppm was at least 80%. In addition, the pest or weed control at 200 ppm in data set [2] was at least 80%. Also, the pest or weed control at 200 ppm in the data set with Phakopsora Pachyrhizi was at least 80%. Further, the inhibition of growth at 20 ppm in data set [3] is at least 80%.
